According to patent US9334246B2, “Substituted triazines for malaria treatment and chemoprophylaxis” (The United States of America, as represented by the …, priority 2013, dated 2016):
Values after ≈ are worked out from the molar mass of the structure shown.

Legend:
Format in all cases: cell-based, Plasmodium falciparum
P. falciparum D6 = test: Malaria SYBR Green Fluorescence Assay, D6 strain
P. falciparum W2 = test: Malaria SYBR Green Fluorescence Assay, W2 strain
P. falciparum C235 = test: Malaria SYBR Green Fluorescence Assay, C235 strain
[1] = Plasmodium falciparum, SYBR Green Assay

Row | Compound | D6 (P. falciparum D6; SYBR Green Assay) [ng/mL] | W2 (P. falciparum W2; SYBR Green Assay) [ng/mL] | C235 (P. falciparum C235; SYBR Green Assay) [ng/mL] | D6 (SYBR Green Assay IC50) (P. falciparum D6) [ng/mL] | W2 (SYBR Green Assay IC50) (P. falciparum W2) [ng/mL] | C235 (SYBR Green Assay IC50) (P. falciparum C235) [ng/mL] | also measured
1 | CCN1CCC(CNc2nc(-c3cccc(OC)c3)nc(C(Cl)(Cl)Cl)n2)CC1 [Cmpd 258] | 50 | 29 | 26 | – | – | – | –
2 | CC(C)(N)CNc1nc(-c2ccc(F)cc2)nc(C(Cl)(Cl)Cl)n1 [Cmpd 389] | – | – | – | 30 | 13 | 45 | –
3 | COc1ccccc1Cc1nc(NCC(C)(C)N)nc(C(Cl)(Cl)Cl)n1 [Cmpd 292] | 77 | 34 | 103 | – | – | – | –
4 | OCCN1CCN(c2nc(-c3ccc(-c4ccccc4)cc3)nc(C(Cl)(Cl)Cl)n2)CC1 [Cmpd 308] | 52 | 24 | 126 | – | – | – | –
5 | CS(=O)(=O)c1ccc(-c2nc(N3CCC(N)CC3)nc(C(Cl)(Cl)Cl)n2)cc1 [Compound 627, CS(═O)(═O)C1═CC═C(C═C1)C1═NC(═NC(═N1)C(Cl)(Cl)Cl)N1CCC(N)CC1] | – | – | – | 85 | 25 | 48 | –
6 | OCCN1CCCN(c2nc(-c3cccc(C(F)(F)F)c3)nc(C(Cl)(Cl)Cl)n2)CC1 [Cmpd 456] | – | – | – | 207 | 91 | 136 | –
7 | CCN(CC)CCNc1nc(-c2ccccc2-c2ccc(C)cc2)nc(C(Cl)(Cl)Cl)n1 [Cmpd 254] | 632 | 492 | 462 | – | – | – | –
8 | CC(C)CN1CCC(Nc2nc(-c3ccc(Cl)cc3)nc(C(Cl)(Cl)Cl)n2)CC1 [Compound 693, CC(C)CN1CCC(CC1)NC1═NC(═NC(═N1)C(Cl)(Cl)Cl)C1═CC═C(Cl)C═C1] | 37 | 29 | 69 | – | – | – | –
9 | COc1ncccc1Nc1nc(NCCN2CCCC2)nc(C(Cl)(Cl)Cl)n1 [Cmpd 350] | 560 | 467 | 900 | – | – | – | –
10 | COc1ccc(-c2nc(NCC3CCN(C)CC3)nc(C(Cl)(Cl)Cl)n2)c2ccccc12 [Cmpd 517] | – | – | – | 23 | 7 | 12 | –
11 | CN1CCC(CNc2nc(-c3ccccc3[N+](=O)[O-])nc(C(Cl)(Cl)Cl)n2)CC1 [Cmpd 516] | – | – | – | 292 | 83 | 181 | –
12 | CN1CCCC1CCNc1nc(-c2ccccc2[N+](=O)[O-])nc(C(Cl)(Cl)Cl)n1 (stereo not drawn) [Cmpd 524] | – | – | – | 108 | 28 | 70 | –
13 | COC1═C(OC)C═C(C═C1)C1═NC(NCC2(N)CCCCC2)═NC(═N1)C(Cl)(Cl)Cl [Compound 669] | 12 | 10 | 23 | – | – | – | –
14 | OCCN1CCCN(c2nc(-c3ccccc3)nc(C(Cl)(Cl)Cl)n2)CC1 [Cmpd 458] | – | – | – | 172 | 44 | 116 | –
15 | CSc1ccc(cc1)c2nc(nc(n2)C(Cl)(Cl)Cl)N3CC4CC3CN4 [Compound 723] | 128 | 92 | 118 | – | – | – | –
16 | CCN1CCC(CNc2nc(-c3ccccc3)nc(C(Cl)(Cl)Cl)n2)CC1 [Cmpd 410] | – | – | – | 103 | 35 | 113 | –
17 | NC1CCN(c2nc(-c3ccc(F)cc3)nc(C(Cl)(Cl)Cl)n2)CC1 [Example 2, 1-(4-(4-fluorophenyl)-6-(trichloromethyl)-1,3,5-triazin-2-yl)piperidin-4-amine] | – | – | – | – | – | – | IC50 (P. falciparum D6; [1]): 0.137 µg/mL (≈ 0.351 µM); IC50 (P. falciparum W2; [1]): 0.078 µg/mL (≈ 0.2 µM); IC50 (P. falciparum C235; [1]): 0.15 µg/mL (≈ 0.384 µM)
18 | CC(C)N1CCC(CNc2nc(-c3ccc(Cl)cc3)nc(C(Cl)(Cl)Cl)n2)CC1 [Cmpd 487] | – | – | – | 64 | 19 | 33 | –
19 | CC(C)(C)c1ccc(cc1)c2nc(NCc3cccc(CN4CCCC4)c3)nc(n2)C(Cl)(Cl)Cl [Compound 735] | 207.4 | 60.65 | 257.5 | – | – | – | –
20 | COc1ccc(-c2nc(NCCc3ccncc3)nc(C(Cl)(Cl)Cl)n2)cc1 [Cmpd 147] | 155 | 77 | 233 | – | – | – | –

Row | Compound | D6 (P. falciparum D6; SYBR Green Assay) [ng/mL] | W2 (P. falciparum W2; SYBR Green Assay) [ng/mL] | C235 (P. falciparum C235; SYBR Green Assay) [ng/mL] | D6 (SYBR Green Assay IC50) (P. falciparum D6) [ng/mL] | W2 (SYBR Green Assay IC50) (P. falciparum W2) [ng/mL] | C235 (SYBR Green Assay IC50) (P. falciparum C235) [ng/mL] | also measured
21 | COc1cccc(-c2nc(NCC3CCN(C(C)C)CC3)nc(C(Cl)(Cl)Cl)n2)c1 [Cmpd 485] | – | – | – | 94 | 24 | 45 | –
22 | CCN1CCCC(Nc2nc(Cc3ccc(OC)cc3)nc(C(Cl)(Cl)Cl)n2)C1 (stereo not drawn) [Cmpd 86] | 623 | 600 | 991 | – | – | – | –
23 | CN1CCCN(c2nc(-c3ccccc3)nc(C(Cl)(Cl)Cl)n2)CC1 [Cmpd 409] | – | – | – | 118 | 43 | 119 | –
24 | CS(=O)(=O)c1ccc(-c2nc(NCCc3ccncc3)nc(C(Cl)(Cl)Cl)n2)cc1 [Cmpd 178] | 392 | 162 | 518 | – | – | – | –
25 | Cc1ccc(-c2nc(NCC3(N)CC3)nc(C(Cl)(Cl)Cl)n2)cc1 [Compound 681, CC1═CC═C(C═C1)C1═NC(NCC2(N)CC2)═NC(═N1)C(Cl)(Cl)Cl] | 593 | 328 | 750 | – | – | – | –
26 | COc1ccc(-c2nc(N3CCCNCC3)nc(C(Cl)(Cl)Cl)n2)c2ccccc12 [Cmpd 281] | 148 | 66 | 205 | – | – | – | –
27 | Cc1ccc(-c2nc(NCCc3ccncc3)nc(C(Cl)(Cl)Cl)n2)cc1 [Cmpd 145] | 168 | 94 | 344 | – | – | – | –
28 | COc1ccc(-c2nc(NCCc3cccnc3)nc(C(Cl)(Cl)Cl)n2)cc1 [Cmpd 174] | 430 | 181 | 641 | – | – | – | –
29 | ClC(Cl)(Cl)c1nc(-c2ccccc2)nc(N2CCCNCC2)n1 [Cmpd 408] | – | – | – | 190 | 84 | 189 | –
30 | COc1cc(OC)cc(-c2nc(NCCCN3CCCC3)nc(C(Cl)(Cl)Cl)n2)c1 [Cmpd 477] | – | – | – | 77 | 23 | 41 | –
31 | CN(C)CCCNc1nc(-c2ccc(F)cc2)nc(C(Cl)(Cl)Cl)n1 [Cmpd 448] | – | – | – | 35 | 7 | 40 | –
32 | CC1(C)CC(Nc2nc(-c3ccc(C(Cl)(Cl)Cl)cc3)nc(C(Cl)(Cl)Cl)n2)CC(C)(C)N1 [Cmpd 325] | 123 | 82 | 269 | – | – | – | –
33 | NC1CCN(CC1)C1═NC(═NC(═N1)C1═CC═C(C═C1)C1═CC═CC═C1)C(Cl)(Cl)Cl [Compound 634] | – | – | – | 145 | 62 | 88 | –
34 | CN1CCCN(CC1)C1═NC(NC2═CC═C(OC(F)(F)F)C═C2)═NC(═N1)C(Cl)(Cl)Cl [Compound 658] | 701 | 625 | 875 | – | – | – | –
35 | Cc1ccc(-c2ccccc2-c2nc(NCc3ccncc3)nc(C(Cl)(Cl)Cl)n2)cc1 [Cmpd 299] | 195 | 148 | 311 | – | – | – | –
36 | Cc1ccc(-c2ccccc2-c2nc(NCCCN(C)C)nc(C(Cl)(Cl)Cl)n2)cc1 [Cmpd 446] | – | – | – | 482 | 223 | 535 | –
37 | CSc1ccc(-c2nc(NC3CC(C)(C)NC(C)(C)C3)nc(C(Cl)(Cl)Cl)n2)cc1 [Cmpd 323] | 20 | 17 | 51 | – | – | – | –
38 | CN1CCCN(c2nc(-c3ccc(F)cc3)nc(C(Cl)(Cl)Cl)n2)CC1 [Cmpd 384] | – | – | – | 25 | 29 | 59 | –
39 | CSc1ccc(-c2nc(NCc3cccnc3)nc(C(Cl)(Cl)Cl)n2)cc1 [Cmpd 160] | 789 | 238 | 896 | – | – | – | –
40 | OCCN1CCN(c2nc(-c3ccc4ccccc4c3)nc(C(Cl)(Cl)Cl)n2)CC1 [Cmpd 305] | 35 | 23 | 68 | – | – | – | –
